Here are results for 1 molecule from article PMC4392994, “Kinetic Characterization and Effect of Immobilized Thermostable β-Glucosidase in Alginate Gel Beads on Sugarcane Juice” (ISRN Biochemistry, 2014).

In the experiment the test system is T1, β-glucosidase.
T1 construct: recombinant, cloned and expressed in E. coli DH5alpha; extracellular, from culture supernatant; partially purified (ammonium sulfate, dialysis); EC 3.2.1.21
The experiment is described as follows: p-nitrophenol release at […] nm, Lineweaver-Burk plot. To be noted: free enzyme, partially purified; acetate buffer 100 mM, pH 5.0, 60 °C, 30 min; 1–15 mM substrate. The class given is biochemical, Bacillus subtilis.

For the molecule `O=[N+]([O-])c1ccc(O[C@@H]2O[C@H](CO)[C@@H](O)[C@H](O)[C@H]2O)cc1` [pNPG], the Km was found to be 3.6 mM.

One may read the Km as the substrate concentration at which the rate is half of its maximum.
